According to ChEMBL document CHEMBL4765473, “PF-07059013: A Noncovalent Modulator of Hemoglobin for Treatment of Sickle Cell Disease” (J Med Chem, 2021):
In brackets after ≈: the same amount, converted by molar mass. Activity calls are given as the source filed them. The rule behind the calls is not given here.

How the values were obtained:
[1] = Drug metabolism in human hepatocytes assessed formation of glucuronide metabolites; type: ADME, cell-based, Hepatocyte
[2] = biological target: T1, Voltage-gated inwardly rectifying potassium channel KCNH2 (Homo sapiens, UniProt Q12809); assay: Binding affinity to human ERG by dofetilide fluorescence polarization binding assay
T1 sequence (Q12809 whole entry): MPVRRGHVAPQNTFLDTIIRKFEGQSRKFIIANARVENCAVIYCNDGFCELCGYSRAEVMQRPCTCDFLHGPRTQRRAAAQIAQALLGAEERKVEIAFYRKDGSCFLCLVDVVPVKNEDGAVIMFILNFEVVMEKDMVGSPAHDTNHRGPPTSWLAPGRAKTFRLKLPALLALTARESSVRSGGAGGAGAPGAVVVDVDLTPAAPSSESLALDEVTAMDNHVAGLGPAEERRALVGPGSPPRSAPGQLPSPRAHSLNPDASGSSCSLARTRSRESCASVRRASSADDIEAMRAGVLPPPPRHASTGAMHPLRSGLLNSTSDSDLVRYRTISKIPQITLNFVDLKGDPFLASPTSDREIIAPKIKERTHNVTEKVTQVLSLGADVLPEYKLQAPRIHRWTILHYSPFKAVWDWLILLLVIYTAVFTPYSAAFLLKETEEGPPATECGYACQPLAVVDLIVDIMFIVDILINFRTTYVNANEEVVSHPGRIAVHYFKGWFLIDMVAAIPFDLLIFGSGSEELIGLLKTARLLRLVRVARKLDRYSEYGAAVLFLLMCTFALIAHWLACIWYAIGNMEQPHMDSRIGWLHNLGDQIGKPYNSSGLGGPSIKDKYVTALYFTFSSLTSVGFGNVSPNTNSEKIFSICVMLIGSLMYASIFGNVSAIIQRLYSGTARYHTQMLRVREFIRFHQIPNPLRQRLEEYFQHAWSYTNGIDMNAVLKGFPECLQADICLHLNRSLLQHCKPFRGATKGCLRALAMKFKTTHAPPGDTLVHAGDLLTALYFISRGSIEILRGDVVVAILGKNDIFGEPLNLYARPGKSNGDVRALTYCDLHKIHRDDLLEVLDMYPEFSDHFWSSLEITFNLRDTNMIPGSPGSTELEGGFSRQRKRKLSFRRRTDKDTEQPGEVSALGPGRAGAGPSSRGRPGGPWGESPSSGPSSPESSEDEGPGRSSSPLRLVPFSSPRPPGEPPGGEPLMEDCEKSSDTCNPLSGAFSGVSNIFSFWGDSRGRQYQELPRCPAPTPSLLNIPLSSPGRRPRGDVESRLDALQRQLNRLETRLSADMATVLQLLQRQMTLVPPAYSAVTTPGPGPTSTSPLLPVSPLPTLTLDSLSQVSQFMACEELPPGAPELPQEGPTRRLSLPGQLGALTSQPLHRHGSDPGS

[3] = biological target: T1, Voltage-gated inwardly rectifying potassium channel KCNH2; assay: Inhibition of human ERG by patch clamp assay
[4] = Protein binding in human blood; type: ADME, tissue-based
[5] = Drug metabolism in human hepatocytes assessed formation of acyl glucuronides metabolites; type: ADME, cell-based, Hepatocyte
[6] = Apparent permeability from apical to basolateral side in MDCK-MDR1 cells; type: ADME, cell-based, Canis lupus familiaris; settings: dog
[7] = Unbound fraction in human plasma; type: ADME, cell-free
[8] = Binding affinity to purified human cross-linked HbS by SPR analysis
Cytochrome P450 2D6 = Cytochrome P450 2D6 (Homo sapiens, UniProt P10635); assay: Inhibition of CYP2D6 (unknown origin); type: ADME
Chain of Cytochrome P450 2D6 (P10635 whole entry): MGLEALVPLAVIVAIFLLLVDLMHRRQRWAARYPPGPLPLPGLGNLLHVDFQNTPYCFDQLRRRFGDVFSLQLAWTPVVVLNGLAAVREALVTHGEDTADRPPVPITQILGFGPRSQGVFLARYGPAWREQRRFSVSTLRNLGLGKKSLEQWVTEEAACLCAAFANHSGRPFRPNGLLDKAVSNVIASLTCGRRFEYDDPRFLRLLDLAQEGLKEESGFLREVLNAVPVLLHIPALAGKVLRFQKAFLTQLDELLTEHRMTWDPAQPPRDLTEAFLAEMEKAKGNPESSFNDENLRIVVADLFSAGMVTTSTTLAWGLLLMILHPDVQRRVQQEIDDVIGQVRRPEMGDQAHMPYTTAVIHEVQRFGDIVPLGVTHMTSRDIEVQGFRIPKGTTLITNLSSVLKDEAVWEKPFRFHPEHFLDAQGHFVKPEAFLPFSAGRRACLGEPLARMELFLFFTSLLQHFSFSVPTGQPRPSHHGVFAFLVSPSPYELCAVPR

Cytochrome P450 1A2 = biological target: T2, Cytochrome P450 1A2 (Homo sapiens, UniProt P05177); assay: Inhibition of CYP1A2 (unknown origin); type: ADME
T2 sequence (P05177 whole entry): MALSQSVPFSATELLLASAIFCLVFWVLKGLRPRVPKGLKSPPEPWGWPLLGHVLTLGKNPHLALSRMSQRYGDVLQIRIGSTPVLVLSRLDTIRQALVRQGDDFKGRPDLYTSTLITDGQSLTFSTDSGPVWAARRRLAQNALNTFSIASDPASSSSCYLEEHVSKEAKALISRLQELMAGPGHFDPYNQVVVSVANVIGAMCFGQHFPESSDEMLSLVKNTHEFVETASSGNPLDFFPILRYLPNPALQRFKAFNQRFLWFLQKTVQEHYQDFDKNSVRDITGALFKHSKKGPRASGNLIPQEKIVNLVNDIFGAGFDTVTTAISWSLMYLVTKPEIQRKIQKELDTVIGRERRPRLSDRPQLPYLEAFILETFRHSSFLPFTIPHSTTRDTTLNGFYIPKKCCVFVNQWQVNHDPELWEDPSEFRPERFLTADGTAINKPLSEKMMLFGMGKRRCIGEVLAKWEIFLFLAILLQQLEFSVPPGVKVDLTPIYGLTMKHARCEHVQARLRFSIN

[9] = Modulation of HbS (unknown origin) assessed as stabilization of the oxy-state of hemoglobin by measuring conversion from oxyHb (R) to deoxyHb (T) pre-incubated for 1 hr and measured after 120 mins by oxygen dissociation assay; set-up: species or system Homo sapiens
Cytochrome P450 3A4 = Cytochrome P450 3A4 (Homo sapiens, UniProt P08684); assay: Inhibition of CYP3A4 (unknown origin); type: ADME
Chain of Cytochrome P450 3A4 (P08684 whole entry): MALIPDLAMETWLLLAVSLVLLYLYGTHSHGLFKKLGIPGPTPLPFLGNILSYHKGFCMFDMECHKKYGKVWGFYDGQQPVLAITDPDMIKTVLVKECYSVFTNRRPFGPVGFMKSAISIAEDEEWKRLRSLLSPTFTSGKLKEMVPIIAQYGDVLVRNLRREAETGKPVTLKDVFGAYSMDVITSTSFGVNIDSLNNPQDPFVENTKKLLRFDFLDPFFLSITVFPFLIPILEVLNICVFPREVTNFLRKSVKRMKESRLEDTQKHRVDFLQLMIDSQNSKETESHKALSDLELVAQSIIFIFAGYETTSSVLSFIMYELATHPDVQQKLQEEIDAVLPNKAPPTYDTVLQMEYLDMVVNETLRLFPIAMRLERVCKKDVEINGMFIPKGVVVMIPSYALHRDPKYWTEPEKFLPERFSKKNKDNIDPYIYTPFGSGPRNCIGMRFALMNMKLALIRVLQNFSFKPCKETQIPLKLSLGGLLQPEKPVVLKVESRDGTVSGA

Mus musculus [10] = assay: Binding to HbS in sickle Townes mouse at 30 to 900 mg/kg, po dosed via gavage measured after 0.5 to 24 hrs by Hemox-analyzer based assay; type: functional, organism-based; settings: dose 30-900 mg/kg, time 0.5-24 hrs
[11] = Intrinsic clearance in human hepatocytes assessed per million cells; type: ADME, cell-based, Hepatocyte; settings: read-out: CLH
[12] = Apparent permeability from basolateral to apical side in MDCK-MDR1 cells; type: ADME, cell-based, Canis lupus familiaris; settings: dog
Cytochrome P450 2C8 = biological target: T3, Cytochrome P450 2C8 (Homo sapiens, UniProt P10632); assay: Inhibition of CYP2C8 (unknown origin); type: ADME
T3 sequence (P10632 whole entry): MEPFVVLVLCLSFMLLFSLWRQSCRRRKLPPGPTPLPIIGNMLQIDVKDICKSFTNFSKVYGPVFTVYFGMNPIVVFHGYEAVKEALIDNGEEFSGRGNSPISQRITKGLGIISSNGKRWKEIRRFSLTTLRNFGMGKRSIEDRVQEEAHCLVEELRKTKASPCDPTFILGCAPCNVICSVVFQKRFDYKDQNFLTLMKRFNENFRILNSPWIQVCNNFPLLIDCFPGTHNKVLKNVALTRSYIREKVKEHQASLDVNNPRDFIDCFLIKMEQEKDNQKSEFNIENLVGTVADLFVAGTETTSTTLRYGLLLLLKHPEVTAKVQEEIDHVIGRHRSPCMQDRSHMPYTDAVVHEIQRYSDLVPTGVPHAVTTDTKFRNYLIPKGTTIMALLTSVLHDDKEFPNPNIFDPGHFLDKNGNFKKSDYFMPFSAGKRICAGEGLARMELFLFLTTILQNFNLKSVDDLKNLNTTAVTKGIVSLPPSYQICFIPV

[13] = Apparent permeability in MDCK cells; type: ADME, cell-based, Canis lupus familiaris; settings: dog
[14] = Protein binding in human RBC assessed as unbound fraction at 1 mM; type: ADME, tissue-based, Erythrocyte; settings: red blood cells (RBC)
[15] = Distribution coefficient, log D of the compound by shake flask method; type: physicochemical; settings: octanol/water
Cytochrome P450 2C9 = Cytochrome P450 2C9 (Homo sapiens, UniProt P11712); assay: Inhibition of CYP2C9 (unknown origin); type: ADME
Chain of Cytochrome P450 2C9 (P11712 whole entry): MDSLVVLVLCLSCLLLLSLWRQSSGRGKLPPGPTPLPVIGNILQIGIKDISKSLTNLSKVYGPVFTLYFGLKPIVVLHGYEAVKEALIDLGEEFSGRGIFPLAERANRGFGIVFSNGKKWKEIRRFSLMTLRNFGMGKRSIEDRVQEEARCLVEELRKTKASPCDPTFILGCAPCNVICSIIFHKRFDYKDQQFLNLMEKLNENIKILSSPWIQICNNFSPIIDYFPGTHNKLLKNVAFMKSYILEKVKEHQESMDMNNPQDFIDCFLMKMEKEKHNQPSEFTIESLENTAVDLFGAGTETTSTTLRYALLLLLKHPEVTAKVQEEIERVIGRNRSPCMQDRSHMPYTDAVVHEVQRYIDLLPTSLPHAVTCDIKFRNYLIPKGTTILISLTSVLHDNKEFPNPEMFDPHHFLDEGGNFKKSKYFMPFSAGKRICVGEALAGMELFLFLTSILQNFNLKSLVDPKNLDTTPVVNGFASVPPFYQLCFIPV

[16] = Thermodynamic solubility of the compound; type: physicochemical; settings: read-out: Therm_solubility
[17] = Kinetic solubility of the compound; type: physicochemical; settings: read-out: Kinetic_solubility
[18] = Drug metabolism in human hepatocytes assessed formation of acyl migration products; type: ADME, cell-based, Hepatocyte
[19] = Half life in human hepatocytes by NMR analysis; type: ADME, cell-based, Hepatocyte
CYP2C9 = CYP2C9 (Homo sapiens, UniProt P11712); assay: Inhibition of CYP2C9 (unknown origin) at 3 uM relative to control; type: ADME
Chain of CYP2C9 (P11712 whole entry): as above

CYP3A4 = CYP3A4 (Homo sapiens, UniProt P08684); assay: Inhibition of CYP3A4 (unknown origin) at 3 uM relative to control; type: ADME
Chain of CYP3A4 (P08684 whole entry): as the sequence (P08684 whole entry) above

CYP2C8 = biological target: T4, CYP2C8 (Homo sapiens, UniProt P10632); assay: Inhibition of CYP2C8 (unknown origin) at 3 uM relative to control; type: ADME
T4 sequence (P10632 whole entry): T3 sequence (P10632 whole entry)

CYP2D6 = CYP2D6 (Homo sapiens, UniProt P10635); assay: Inhibition of CYP2D6 (unknown origin) at 3 uM relative to control; type: ADME
Chain of CYP2D6 (P10635 whole entry): as the sequence (P10635 whole entry) above

[20] = Intrinsic clearance in mouse hepatocytes assessed per million cells; type: ADME, cell-based, Hepatocyte; settings: read-out: CLH
Homo sapiens [21] = organism: Homo sapiens; assay: Binding affinity to HbS (unknown origin) by ITC analysis; settings: filed as modulator
CYP1A2 = biological target: T5, CYP1A2 (Homo sapiens, UniProt P05177); assay: Inhibition of CYP1A2 (unknown origin) at 3 uM relative to control; type: ADME
T5 sequence (P05177 whole entry): T2 sequence (P05177 whole entry)

Mus musculus [22] = assay: Binding to HbS in sickle Townes mouse at 10 to 490 mg/kg, po dosed via gavage measured after 0.5 to 24 hrs by Hemox-analyzer based assay; type: functional, organism-based; settings: dose 10-490 mg/kg, time 0.5-24 hrs
[23] = Modulation activity at HbS in sickle Townes mouse assessed as decrease in RBC sickling at 200 mg/kg, po BID for 15 days dosed via gavage by Hemox-analyzer based assay; type: functional; set-up: scale not given: the % may be the effect or the level left; settings: time 15 day
Homo sapiens [24] = organism: Homo sapiens; assay: Binding affinity to HbS tetramer (unknown origin) by ESI-MS analysis; settings: filed as modulator

Compound	Ki [2]	Kd [8]	IC50 [9]	hepatocyte CLint [11]	logD [15]	other results
C[C@H](Oc1cc2cc(F)cc(F)c2nc1N)c1cc(C(=O)O)ccc1-n1cccn1	40 µM	0.037 µM	4.6 µM	< 3 µL/min/1e6 cells	1	Drug metabolism [1]: Metabolite_Detected; IC50 [3]: 144 µM; PB [4]: Dose-dependent effect; Drug metabolism [5]: Metabolite_Detected; Papp A→B [6]: 0.4 ×10⁻⁶ cm/s; fraction unbound [7]: 0.027; IC50 (Cytochrome P450 2D6): > 30 µM; IC50 (Cytochrome P450 1A2): > 30 µM; IC50 (Cytochrome P450 3A4): > 30 µM; PPB (Mus musculus [10]): Dose-dependent effect; Papp B→A [12]: 4 ×10⁻⁶ cm/s; IC50 (Cytochrome P450 2C8): 17.3 µM; Papp [13]: 3 ×10⁻⁶ cm/s; fraction unbound at 1000 µM [14]: 0.000577; IC50 (Cytochrome P450 2C9): 20.6 µM
C[C@H](Oc1cc2cc(F)ccc2nc1N)c1cc2c(cnn2CCO)cc1-n1cccn1	8.3 µM	0.02 µM	4.5 µM		3.3	
C[C@H](Oc1cc2cc(F)ccc2nc1N)c1cc(C(=O)O)ccc1-n1cccn1	> 40 µM	0.1 µM	4.9 µM	4 µL/min/1e6 cells	0.9	
C[C@H](Oc1cc2cc(C(N)=O)cc(F)c2nc1N)c1ncc(F)cc1-n1cccn1	> 40 µM	0.068 µM	3.9 µM	4 µL/min/1e6 cells	2.1	solubility thermodynamic [16]: 0.6 µg/mL (≈ 1.46 µM); solubility kinetic [17]: 0.5 µg/mL (≈ 1.22 µM)
C[C@H](Oc1cc2cc(C(N)=O)ccc2nc1N)c1cc2[nH]ncc2cc1-n1cccn1	13 µM	0.036 µM	5.5 µM	< 3 µL/min/1e6 cells	2.7	Papp [13]: 1.4 ×10⁻⁶ cm/s
C[C@H](Oc1cc2ccccc2nc1N)c1cc(F)ccc1-n1cccn1		1.5 µM	17 µM		4	
C[C@H](Oc1cc2cc(F)ccc2nc1N)c1cc(F)c(F)cc1-n1cccn1	4.4 µM	0.115 µM	5.7 µM	57 µL/min/1e6 cells	4.1	
C[C@H](Oc1cc2cc(C(N)=O)ccc2nc1N)c1ncc(F)cc1-n1cccn1	34 µM	0.183 µM	5.4 µM	< 2 µL/min/1e6 cells	1.9	solubility thermodynamic [16]: 5.3 µg/mL (≈ 13.5 µM); solubility kinetic [17]: 28.5 µg/mL (≈ 72.6 µM)
C[C@H](Oc1cc2cc(C#N)ccc2nc1N)c1cc(F)c(F)cc1-n1cccn1	19 µM	0.381 µM	5.5 µM	24 µL/min/1e6 cells	4.3	
C=CCOC(=O)[C@H]1O[C@@H](OC(=O)c2ccc(-n3cccn3)c([C@H](C)Oc3cc4cc(F)cc(F)c4nc3N)c2)[C@H](O)[C@@H](O)[C@@H]1O						Drug metabolism [18]: Metabolite_Detected; half-life [19]: 2.18 h
Cc1n[nH]cc1-c1cnc(N)c(O[C@@H](C)c2cc(F)ccc2-n2cccn2)c1	3.8 µM	3.6 µM	21 µM	23 µL/min/1e6 cells	3.2	inhibition at 3 µM (CYP2C9): < 50%; inhibition at 3 µM (CYP3A4): < 50%; inhibition at 3 µM (CYP2C8): < 50%; inhibition at 3 µM (CYP2D6): < 50%; hepatocyte CLint [20]: 104 µL/min/1e6 cells; Activity (Homo sapiens [21]): Active; inhibition at 3 µM (CYP1A2): < 50%; Papp [13]: 24 ×10⁻⁶ cm/s
C[C@H](Oc1cc2cc(C(N)=O)ccc2nc1N)c1cc(F)ccc1-n1cccn1	24 µM	0.402 µM	11 µM	13 µL/min/1e6 cells	3	
C[C@H](Oc1cc2cc(C(N)=O)ccc2nc1N)c1nc(OCCO)ccc1-n1cccn1		0.142 µM	5.3 µM	3 µL/min/1e6 cells	1.8	
C[C@H](Oc1cc2cc(C(N)=O)ccc2nc1N)c1cc2c(cnn2CCO)cc1-n1cccn1	> 40 µM	0.059 µM	4.3 µM	4 µL/min/1e6 cells	2.1	
C[C@H](Oc1cc2cc(F)ccc2nc1N)c1[nH]c(=O)ccc1-n1cccn1 [PF-07059013]	> 36 µM	0.034 µM	4.8 µM	18 µL/min/1e6 cells	2.4	Drug metabolism [1]: Metabolite_Detected; IC50 [3]: 43 µM; PB [4]: Dose-dependent effect; Papp A→B [6]: 0.1 ×10⁻⁶ cm/s; fraction unbound [7]: 0.162; IC50 (Cytochrome P450 2D6): > 30 µM; IC50 (Cytochrome P450 1A2): 24.4 µM; IC50 (Cytochrome P450 3A4): > 30 µM; Papp B→A [12]: 14 ×10⁻⁶ cm/s; PPB (Mus musculus [22]): Dose-dependent effect; IC50 (Cytochrome P450 2C8): 21.8 µM; Papp [13]: 20 ×10⁻⁶ cm/s; Activity [23]: 37.8%; fraction unbound at 1000 µM [14]: 0.000598; IC50 (Cytochrome P450 2C9): 24.9 µM
Cc1n[nH]cc1-c1cnc(N)c(OC(C)c2cc(F)ccc2-n2cccn2)c1 (racemic)						Activity (Homo sapiens [24]): Active
C[C@H](Oc1cc2cc(C(N)=O)ccc2nc1N)c1cc(F)c(F)cc1-n1cccn1	4.1 µM	0.122 µM	5.4 µM	14 µL/min/1e6 cells	3.2	
C[C@H](Oc1cc2cc(C#N)ccc2nc1N)c1cc(F)ccc1-n1cccn1	> 40 µM	0.322 µM	6.1 µM	40 µL/min/1e6 cells	3.8	
Cc1n[nH]cc1-c1cnc(N)c(O[C@H](C)c2cc(F)ccc2-n2cccn2)c1		> 300 µM				
C[C@H](Oc1cc2c(F)ccc(F)c2nc1N)c1cc(C(=O)O)ccc1-n1cccn1		0.064 µM	4.5 µM	< 3 µL/min/1e6 cells	1.1	
C[C@H](Oc1cc2cc(F)ccc2nc1N)c1cc2c(cnn2CC(=O)O)cc1-n1cccn1	> 40 µM	0.009 µM	3.7 µM	21 µL/min/1e6 cells	0.5	
C[C@H](Oc1cc2cc(F)cc(F)c2nc1N)c1[nH]c(=O)ccc1-n1cccn1	63 µM	0.014 µM	4.3 µM	17 µL/min/1e6 cells	2.6	
